Data: ChEMBL document CHEMBL3046526, “-Glucosidase inhibitory and antioxidant properties and antidiabetic activity of Hypericum ascyron L” (Med Chem Res, 2011)
Values after ≈ are worked out from the molar mass of the structure shown.

Experiments:
[1] = molecular target: Lysosomal alpha-glucosidase (Rattus norvegicus) (UniProt Q6P7A9); experiment: Inhibition ofRattus norvegicus alpha-glucosidase isolated from intestine using PNPG as substrate at 0.02 uM incubated for 15 min prior to substrate addition measured after 15 min by spectrophotometric analysis
[2] = Inhibition of alpha-glucosidase (unknown origin) using PNPG as substrate incubated for 15 min prior to substrate addition measured after 15 min by spectrophotometric analysis; set-up: species or system Homo sapiens
[3] = Inhibition of alpha-glucosidase (unknown origin) using PNPG as substrate at 0.02 uM incubated for 15 min prior to substrate addition measured after 15 min by spectrophotometric analysis; conditions: Homo sapiens
[4] = tested on: Radical scavenging activity; experiment: Antioxidant activity assessed as inhibition of DPPH radical production after 30 min by microplate assay; format: functional
[5] = tested on: Radical scavenging activity; experiment: Antioxidant activity assessed as inhibition of DPPH radical production at 10.81 ug/ml after 30 min by microplate assay; format: functional
[6] = tested on: Radical scavenging activity; experiment: Antioxidant activity assessed as inhibition of DPPH radical production at 54.05 ug/ml after 30 min by microplate assay; format: functional
[7] = molecular target: Lysosomal alpha-glucosidase (Rattus norvegicus) (UniProt Q6P7A9); experiment: Inhibition ofRattus norvegicus alpha-glucosidase isolated from intestine using PNPG as substrate at 0.03 uM incubated for 15 min prior to substrate addition measured after 15 min by spectrophotometric analysis
Homo sapiens [8] = species: Homo sapiens; experiment: Inhibition of alpha-glucosidase (unknown origin) using PNPG as substrate at 0.03 uM incubated for 15 min prior to substrate addition measured after 15 min by spectrophotometric analysis
Homo sapiens [9] = species: Homo sapiens; experiment: Inhibition of alpha-glucosidase (unknown origin) using PNPG as substrate at 0.83 uM incubated for 15 min prior to substrate addition measured after 15 min by spectrophotometric analysis
[10] = molecular target: Lysosomal alpha-glucosidase (Rattus norvegicus) (UniProt Q6P7A9); conditions: 0.83 uM
Description: Inhibition ofRattus norvegicus alpha-glucosidase isolated from intestine using PNPG as substrate at 0.83 uM incubated for 15 min prior to substrate addition measured after 15 min by spectrophotometric analysis

[11] = tested on: Radical scavenging activity; experiment: Antioxidant activity assessed as inhibition of DPPH radical production at 108.11 ug/ml after 30 min by microplate assay; format: functional

Chain of Lysosomal alpha-glucosidase (Rattus norvegicus) (Q6P7A9 whole entry): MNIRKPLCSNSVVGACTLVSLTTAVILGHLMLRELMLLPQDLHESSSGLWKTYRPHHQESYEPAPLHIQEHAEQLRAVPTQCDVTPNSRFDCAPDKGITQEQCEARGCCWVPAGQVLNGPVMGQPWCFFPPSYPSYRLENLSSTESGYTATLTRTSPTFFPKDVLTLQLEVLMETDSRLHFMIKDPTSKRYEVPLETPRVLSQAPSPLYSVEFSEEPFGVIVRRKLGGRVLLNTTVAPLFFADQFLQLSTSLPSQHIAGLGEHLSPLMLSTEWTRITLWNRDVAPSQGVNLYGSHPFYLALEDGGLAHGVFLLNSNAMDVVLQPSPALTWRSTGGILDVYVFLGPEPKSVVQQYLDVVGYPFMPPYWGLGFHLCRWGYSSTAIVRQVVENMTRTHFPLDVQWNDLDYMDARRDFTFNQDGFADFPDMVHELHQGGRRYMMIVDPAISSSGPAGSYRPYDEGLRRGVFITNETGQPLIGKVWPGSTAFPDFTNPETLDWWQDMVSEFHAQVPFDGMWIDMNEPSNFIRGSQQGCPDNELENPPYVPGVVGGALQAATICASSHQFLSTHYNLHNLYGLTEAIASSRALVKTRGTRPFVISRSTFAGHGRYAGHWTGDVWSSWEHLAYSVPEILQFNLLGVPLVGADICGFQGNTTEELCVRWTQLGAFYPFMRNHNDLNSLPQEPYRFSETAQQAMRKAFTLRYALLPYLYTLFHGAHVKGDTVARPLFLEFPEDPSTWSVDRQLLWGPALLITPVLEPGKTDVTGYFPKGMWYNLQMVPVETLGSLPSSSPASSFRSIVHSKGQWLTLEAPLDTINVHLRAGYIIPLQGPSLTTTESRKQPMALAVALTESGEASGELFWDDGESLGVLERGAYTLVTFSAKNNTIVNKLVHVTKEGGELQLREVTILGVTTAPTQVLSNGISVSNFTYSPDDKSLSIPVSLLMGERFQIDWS

SMILES | inhibition [1] | IC50 [2] | inhibition [3] | IC50 [4] | inhibition [6] | also measured
C[C@H]1[C@H](C)CC[C@]2(C(=O)O)CC[C@]3(C)C(=CC[C@@H]4[C@@]5(C)CC[C@H](O)C(C)(C)[C@@H]5CC[C@]43C)[C@H]12 [URSOLIC ACID] | < 50% | 1.78 µM | 99.7% |  |  | 
CCCOC(=O)c1cc(O)c(O)c(O)c1 [PROPYL GALLATE] |  |  |  | 3.96 µg/mL (≈ 18.7 µM) |  | inhibition [5]: 89%
O=c1c(O[C@@H]2O[C@H](CO)[C@@H](O)[C@H](O)[C@H]2O)c(-c2ccc(O)c(O)c2)oc2cc(O)cc(O)c12 [ISOQUERCETIN] | < 50% |  | 14.4% | 24.02 µg/mL (≈ 51.7 µM) | 86.1% | 
O=c1c(O)c(-c2ccc(O)c(O)c2)oc2c(O)ccc(O)c12 |  |  |  |  | 2.63% | inhibition [7]: < 50%; inhibition (Homo sapiens [8]): 14.3%
O=c1c(O)c(-c2ccc(O)cc2)oc2cc(O)cc(O)c12 [KAEMPFEROL] |  | 61.8 µM |  | 14.78 µg/mL (≈ 51.6 µM) | 90.1% | inhibition [7]: 99.3%; inhibition (Homo sapiens [8]): 51.5%
O=c1c(O[C@@H]2O[C@H](CO)[C@@H](O)[C@H](O)[C@H]2O)c(-c2ccc(O)cc2)oc2cc(O)cc(O)c12 | < 50% |  | 18% |  | 1.96% | 
C[C@H]1O[C@H](O[C@H]2[C@H](O)[C@@H](O)[C@@H](O[C@H]3[C@H](O)[C@@H](O)C(O)O[C@@H]3CO)O[C@@H]2CO)[C@H](O)[C@@H](O)[C@@H]1N[C@H]1C=C(CO)[C@@H](O)[C@H](O)[C@H]1O (some centres undefined) [ACARBOSE] |  | 895 µM |  |  |  | inhibition (Homo sapiens [9]): 68.4%; inhibition [10]: 55.2%
O=c1c(O[C@@H]2O[C@H](CO)[C@H](O)[C@H](O)[C@H]2O)c(-c2ccc(O)c(O)c2)oc2cc(O)cc(O)c12 [HYPEROSIDE] | < 50% |  | 14.2% | 24.02 µg/mL (≈ 51.7 µM) | 86.5% | 
Cc1cc(C(C)(C)C)c(O)c(C(C)(C)C)c1 [BUTYLATED HYDROXYTOLUENE] |  |  |  | 40.8 µg/mL (≈ 185 µM) |  | inhibition [11]: 80.5%
